# Measurements: ChEMBL document CHEMBL1201862, “PubChem BioAssay data set” (2004)
# The source made the active and inactive calls.
# What was measured:
# [1] = A549 cell cytotoxicity, dose response, cytotoxicity control, plate reader, cherry-pick, antagonist series (AID 743412); assay type: functional, cell-based
# [2] = toxicity toward HepG2 liver cells – cell-based, plate reader, cherry-pick, antagonist series, cytotoxicity control, dose response (AID 743416); assay type: functional
# [3] = blockers of bursicon-stimulated LGR2 cAMP reporter – cell-based, HEK293, CRE-luciferase reporter, cherry pick, set 2, dose response (AID 743343); assay type: functional;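 note: transfected cells were stimulated with diluted bursicon conditioned medium after compound addition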
# [4] = blockade of melanocortin 4 receptor signaling – cell-based, plate reader, cherry pick, counter-screen for LGR2 antagonist project, dose response (AID 743444); assay type: functional;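 note: transfected HEK 293 cells stimulated with alpha-MSH peptide; potency of inhibitors of the alpha-MSH evoked signal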
# [5] = viability loss in HEK293 cells – cell-based, plate reader, cherry-picked samples, cytotoxicity control, dose response (AID 743446); assay type: functional
# [6] = target: Induced myeloid leukemia cell differentiation protein Mcl-1 (Homo sapiens, UniProt Q07820); assay type: functional
# Sequence of Induced myeloid leukemia cell differentiation protein Mcl-1 (Q07820 whole entry): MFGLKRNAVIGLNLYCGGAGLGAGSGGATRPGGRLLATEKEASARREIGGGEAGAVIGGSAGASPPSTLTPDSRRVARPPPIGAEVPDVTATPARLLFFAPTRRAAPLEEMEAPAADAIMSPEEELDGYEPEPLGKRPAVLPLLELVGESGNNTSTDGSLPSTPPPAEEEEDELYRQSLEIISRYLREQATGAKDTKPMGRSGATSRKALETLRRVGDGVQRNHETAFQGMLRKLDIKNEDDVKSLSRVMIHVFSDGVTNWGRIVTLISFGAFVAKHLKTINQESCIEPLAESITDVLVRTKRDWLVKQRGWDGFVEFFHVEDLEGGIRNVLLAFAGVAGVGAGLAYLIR
# cells [7] = assay type: functional, cell-based
# cells [8] = assay type: functional, cell-based; remark: listed apart in the source
# Protein skinhead-1 = target: T1, Protein skinhead-1 (Caenorhabditis elegans, UniProt P34707); assay type: functional
# T1 sequence (P34707 whole entry): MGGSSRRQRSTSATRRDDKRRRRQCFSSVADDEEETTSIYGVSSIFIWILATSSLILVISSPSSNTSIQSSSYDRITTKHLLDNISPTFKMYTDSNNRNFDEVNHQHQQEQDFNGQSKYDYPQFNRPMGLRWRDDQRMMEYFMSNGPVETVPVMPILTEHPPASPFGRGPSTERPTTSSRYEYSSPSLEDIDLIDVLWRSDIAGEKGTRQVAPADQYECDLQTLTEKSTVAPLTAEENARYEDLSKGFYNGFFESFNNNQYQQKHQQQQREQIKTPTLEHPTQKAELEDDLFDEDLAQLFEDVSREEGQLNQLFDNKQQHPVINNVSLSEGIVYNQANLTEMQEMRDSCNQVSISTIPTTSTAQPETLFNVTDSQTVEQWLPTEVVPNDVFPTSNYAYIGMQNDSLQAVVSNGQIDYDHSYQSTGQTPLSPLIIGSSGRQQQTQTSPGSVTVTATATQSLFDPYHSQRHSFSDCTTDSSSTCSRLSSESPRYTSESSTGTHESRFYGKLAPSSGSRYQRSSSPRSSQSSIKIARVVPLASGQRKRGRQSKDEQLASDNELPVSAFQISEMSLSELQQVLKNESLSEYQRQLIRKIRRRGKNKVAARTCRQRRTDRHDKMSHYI
# [9] = target: T2, Polyadenylate-binding protein 1 (Homo sapiens, UniProt P11940); test: MLLE binding blockers, Cy5 peptide tracer – biochemical, fluorescence polarization, Cy5-PAM2 peptide, secondary, miRNA deadenylation inhibitor project, dose response (AID 602260); assay type: functional; details: read-out: IC50_Mean
# T2 sequence (P11940 whole entry, the tested form may be a part): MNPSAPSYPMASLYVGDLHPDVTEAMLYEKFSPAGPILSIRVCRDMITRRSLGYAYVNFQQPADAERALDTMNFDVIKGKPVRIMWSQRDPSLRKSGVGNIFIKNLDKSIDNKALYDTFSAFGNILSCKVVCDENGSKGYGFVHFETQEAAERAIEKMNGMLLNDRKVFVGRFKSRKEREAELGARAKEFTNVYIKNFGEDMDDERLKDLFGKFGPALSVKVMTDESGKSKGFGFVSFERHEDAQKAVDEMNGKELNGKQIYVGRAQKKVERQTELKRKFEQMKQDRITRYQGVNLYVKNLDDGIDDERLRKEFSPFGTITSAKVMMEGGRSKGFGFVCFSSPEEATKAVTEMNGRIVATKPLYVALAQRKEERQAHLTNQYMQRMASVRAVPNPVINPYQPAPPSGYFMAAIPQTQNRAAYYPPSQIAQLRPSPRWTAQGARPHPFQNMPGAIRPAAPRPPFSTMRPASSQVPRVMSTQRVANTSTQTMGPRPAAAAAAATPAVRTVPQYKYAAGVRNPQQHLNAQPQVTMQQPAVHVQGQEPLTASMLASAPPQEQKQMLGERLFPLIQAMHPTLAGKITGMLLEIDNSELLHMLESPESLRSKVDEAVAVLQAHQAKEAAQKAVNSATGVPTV
# [10] = target: T2, Polyadenylate-binding protein 1; test: MLLE domain peptide-binding blockers, IC50 – biochemical, fluorescence polarization, FITC-PAM2 peptide, dose response (AID 602259); assay type: functional; details: read-out: IC50_Mean
# [11] = NIH-3T3 fibroblast cytotoxicity, dose response, cytotoxicity control, cell-based, fluorescence, Alamar Blue, secondary assay (AID 2327); assay type: functional;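 note: NIH-3T3 mouse fibroblasts cultured with fluconazole at 8 µg/mL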
# [12] = fluconazole-exposed Candida albicans growth modulators – fluorescence, retest, confirmation (AID 2467); assay type: functional, cell-based
# [13] = blockers of HIV-1 envelope-mediated cell-cell fusion – cherry-pick, dose response (AID 652057); assay type: functional, cell-based
# [14] = blockers of HIV-1 ZM109 envelope-driven cell-cell fusion – HeLa effector, CEM target cells, luciferase, cherry-pick, dose response (AID 652058); assay type: functional, cell-based;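 note: luciferase signal from HIV-1 Env mediated cell-cell fusion of effector and target cells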
# [15] = HIV-1 AD8 envelope cell-cell fusion blockers – cherry-pick, dose response (AID 652062); assay type: functional, cell-based;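 note: luciferase signal from cell-cell fusion driven by HIV-1 clade B AD8 Env; potency is for inhibitors of fusion seen as a drop in luminescence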
# [16] = target: Luciferin 4-monooxygenase (Photinus pyralis, UniProt P08659); test: inhibition of purified Photinus pyralis luciferase – biochemical, luminescence, dose response (AID 1891)
# Sequence of Luciferin 4-monooxygenase (P08659 whole entry): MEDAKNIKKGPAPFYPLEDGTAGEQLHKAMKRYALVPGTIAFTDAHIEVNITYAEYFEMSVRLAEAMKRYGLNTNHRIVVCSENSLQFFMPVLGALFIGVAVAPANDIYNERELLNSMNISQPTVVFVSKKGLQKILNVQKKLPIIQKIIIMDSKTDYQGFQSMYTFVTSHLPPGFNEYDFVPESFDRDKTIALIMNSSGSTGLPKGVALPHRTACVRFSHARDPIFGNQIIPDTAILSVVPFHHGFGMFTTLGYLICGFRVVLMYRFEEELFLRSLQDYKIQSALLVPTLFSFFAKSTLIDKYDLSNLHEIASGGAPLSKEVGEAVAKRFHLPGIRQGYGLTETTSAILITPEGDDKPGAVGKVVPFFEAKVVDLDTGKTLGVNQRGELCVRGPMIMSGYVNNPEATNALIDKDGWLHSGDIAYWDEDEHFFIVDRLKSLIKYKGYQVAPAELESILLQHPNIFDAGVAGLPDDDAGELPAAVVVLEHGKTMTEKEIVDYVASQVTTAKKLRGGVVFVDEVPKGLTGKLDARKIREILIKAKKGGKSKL
# [17] = Luminescence Cell-Based Dose Confirmation HTS to Identify Inhibitors of Platelet Dense Granule Release. [Related pubchem assays: 1663 (Primary HTS), 1678 (Summary of Project)]; assay type: functional
# BJ [18] = test: BJ-TERT fibroblast viability loss – cell-based, RAS-independent, luminescence, dose response (AID 1933); assay type: functional; details: Homo sapiens
# BJ [19] = test: cells; assay type: functional, cell-based; details: Homo sapiens
# BJ [20] = test: BJ-TERT-LT-ST fibroblast viability loss – cell-based, RAS-independent, luminescence, dose response (AID 1935); assay type: functional; details: Homo sapiens;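 note: BJ fibroblasts immortalized with TERT plus LT and ST oncogenes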
# [21] = DRD fibroblast viability loss – cell-based, non-viral oncogenic, luminescence, dose response (AID 1934); assay type: functional; details: Homo sapiens
# [22] = viability of uninfected HEp-2 cells – cell-based, HTS, cytotoxicity control for RSV inhibitor project, dose response (AID 2410); assay type: functional; details: human respiratory syncytial virus
# cells [23] = assay type: functional
structure (smiles),measurement,setting,value
O=C(Nc1cc2ccccc2oc1=O)c1ccccc1,AC50,[1],31.5 µM (active)
same,AC50,[2],41 µM (active)
same,AC50,[3],1.69 µM (active)
same,AC50,[4],3.08 µM (active)
same,AC50,[5],37.2 µM (active)
Cn1c(N)c(C(=O)COC(=O)c2cc(-c3ccco3)nc3ccccc23)c(=O)n(Cc2ccccc2)c1=O,IC50,[6],2.95 µM (active)
CN(C)CCCN(C(=O)CCS(=O)(=O)c1ccccc1)c1nc2cc3c(cc2s1)OCO3,EC50,cells [7],> 350 µM (not active)
same,EC50,cells [8],> 350 µM (not active)
COc1ccccc1CNC(=O)C1CCN(C(=O)N(C)C)CC1,IC50,Protein skinhead-1,> 100 µM (inactive)
O=C(O)CCCCCN1C(=O)C(O)=C(C(=O)/C=C/c2ccccc2)C1c1ccccc1[N+](=O)[O-] (stereo not drawn),IC50,[9],> 66 µM (inactive)
same,IC50,[10],> 66 µM (inactive)
COc1ccc(Nc2nc(C(=O)NCCCN3CCOCC3)cs2)cc1,IC50,Protein skinhead-1,> 100 µM (inactive)
CN(C)c1ccc(C(=O)N/N=C/c2cc(Br)cc(Br)c2O)cc1,EC50,[11],14 µM (active)
same,EC50,[12],> 38 µM (not active)
COc1ccc(S(=O)(=O)Nc2ccc3c(c2)CC(=O)N([C@@H](C)CO)C[C@H](C)[C@H](CN(C)S(=O)(=O)c2cccs2)O3)cc1,AC50,[13],7.42 µM (active)
same,AC50,[14],1.15 µM (active)
same,AC50,[15],25.1 µM (active)
O=C(Nc1ccc(Cl)cc1)Nc1ccccc1C(=O)O,EC50,[16],< 0.088 µM (active)
same,EC50,[17],5.21 µM (active)
same,AC50,[1],> 52 µM (inactive)
same,AC50,[3],9.59 µM (active)
same,AC50,[4],6.99 µM (active)
COc1cccc(/C=C2\CC(C)Cc3c2nc2ccccc2c3C(=O)O)c1OC (stereo not drawn),IC50,Protein skinhead-1,> 100 µM (inactive)
Cc1ccc(/C=N/NC(=O)c2ccc3ccccc3c2)s1,EC50,BJ [18],4.71 µM (inconclusive)
same,EC50,BJ [19],96.4 µM (inconclusive)
same,EC50,BJ [20],62.1 µM (active)
same,EC50,[21],18 µM (inconclusive)
Cc1ccc(S(=O)(=O)N2CCN(c3ccccn3)CC2)cc1,EC50,cells [7],> 350 µM (not active)
same,EC50,cells [8],> 350 µM (not active)
O=C(NCC1CCCO1)c1cc2c([nH]c3ccccc32)c(-c2ccc(F)cc2)n1 (stereo not drawn),EC50,BJ [18],30.7 µM (active)
same,EC50,BJ [19],23.9 µM (active)
same,EC50,BJ [20],> 150 µM (not active)
same,EC50,[21],23.6 µM (active)
CCOC(=O)c1sc(=S)n(-c2cccc(OC)c2)c1N,IC50,[9],> 66 µM (inactive)
same,IC50,[10],> 66 µM (inactive)
CCOc1ccc2nc(NN=C3C(=O)CC(C)(C)CC3=O)sc2c1,EC50,[11],> 160 µM (inactive)
same,EC50,[12],9.16 µM (active)
COC(=O)CCn1c(C)cc(C(=O)COc2ccccc2C(N)=O)c1C,CC50,[22],9.72 µM (active)
same,EC50,BJ [18],58.1 µM (active)
same,EC50,BJ [19],> 150 µM (not active)
same,EC50,BJ [20],> 150 µM (inconclusive)
same,EC50,[21],> 150 µM (not active)
same,IC50,cells [23],19.8 µM (active)
CC(=O)Nc1ccc(NC(=O)CCC(=O)OCC(=O)c2ccc(F)cc2)cc1,EC50,cells [7],> 350 µM (not active)
same,EC50,cells [8],> 350 µM (not active)
CCCCN(CCCC)S(=O)(=O)c1ccc(C(=O)Nc2nnc(COC)o2)cc1,EC50,[11],> 150 µM (inconclusive)
same,EC50,[12],2.92 µM (active)
O=C(Nc1ccc(Cl)cc1)Nc1nnc(/C=C/c2ccccc2)s1,IC50,[6],5.89 µM (active)
